Measurements from patent US10428080B2, “TBK/IKK inhibitor compounds and uses thereof” (Merck Patent GmbH, priority 2015, dated 2019).
pIC50: −log10 of the molar value.

What was measured:
TBK1 = molecular target: T1, TBK1 (Homo sapiens, UniProt Q9UHD2); assay: TBK Biochemical Assay; settings: read-out: TBK1 IC50
T1 sequence (Q9UHD2 1-729): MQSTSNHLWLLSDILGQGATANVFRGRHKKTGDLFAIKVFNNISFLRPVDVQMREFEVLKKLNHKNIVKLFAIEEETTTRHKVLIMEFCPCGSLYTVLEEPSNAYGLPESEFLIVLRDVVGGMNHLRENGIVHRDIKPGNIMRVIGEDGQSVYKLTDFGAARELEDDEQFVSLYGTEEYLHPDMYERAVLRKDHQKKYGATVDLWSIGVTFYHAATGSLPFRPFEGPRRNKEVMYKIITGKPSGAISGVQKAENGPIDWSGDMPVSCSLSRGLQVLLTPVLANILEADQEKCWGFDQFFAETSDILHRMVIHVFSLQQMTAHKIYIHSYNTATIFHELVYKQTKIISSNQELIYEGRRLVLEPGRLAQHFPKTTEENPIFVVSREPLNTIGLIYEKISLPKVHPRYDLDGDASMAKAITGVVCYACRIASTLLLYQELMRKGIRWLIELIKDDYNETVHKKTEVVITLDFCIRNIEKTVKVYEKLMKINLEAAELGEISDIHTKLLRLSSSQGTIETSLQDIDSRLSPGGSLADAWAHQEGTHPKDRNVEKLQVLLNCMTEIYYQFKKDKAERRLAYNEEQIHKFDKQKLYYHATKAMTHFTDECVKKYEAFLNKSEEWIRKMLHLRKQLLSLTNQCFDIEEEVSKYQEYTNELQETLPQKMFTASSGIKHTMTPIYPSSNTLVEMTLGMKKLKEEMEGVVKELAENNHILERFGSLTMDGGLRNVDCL
Summary of the method: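 Caliper LabChip mobility-shift readout of substrate and product after 90 min of TBK1 reaction at 25° C and stop-buffer addition. Compounds tested in 1:4 serial dilution over 10 points from 30 uM final at 1% DMSO; staurosporine 10 uM final defines full inhibition.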

IKKε = molecular target: T2, IKKε (Homo sapiens, UniProt Q14164); assay: IKKe Biochemical Assay; settings: read-out: IKKε IC50
T2 sequence (Q14164 1-716): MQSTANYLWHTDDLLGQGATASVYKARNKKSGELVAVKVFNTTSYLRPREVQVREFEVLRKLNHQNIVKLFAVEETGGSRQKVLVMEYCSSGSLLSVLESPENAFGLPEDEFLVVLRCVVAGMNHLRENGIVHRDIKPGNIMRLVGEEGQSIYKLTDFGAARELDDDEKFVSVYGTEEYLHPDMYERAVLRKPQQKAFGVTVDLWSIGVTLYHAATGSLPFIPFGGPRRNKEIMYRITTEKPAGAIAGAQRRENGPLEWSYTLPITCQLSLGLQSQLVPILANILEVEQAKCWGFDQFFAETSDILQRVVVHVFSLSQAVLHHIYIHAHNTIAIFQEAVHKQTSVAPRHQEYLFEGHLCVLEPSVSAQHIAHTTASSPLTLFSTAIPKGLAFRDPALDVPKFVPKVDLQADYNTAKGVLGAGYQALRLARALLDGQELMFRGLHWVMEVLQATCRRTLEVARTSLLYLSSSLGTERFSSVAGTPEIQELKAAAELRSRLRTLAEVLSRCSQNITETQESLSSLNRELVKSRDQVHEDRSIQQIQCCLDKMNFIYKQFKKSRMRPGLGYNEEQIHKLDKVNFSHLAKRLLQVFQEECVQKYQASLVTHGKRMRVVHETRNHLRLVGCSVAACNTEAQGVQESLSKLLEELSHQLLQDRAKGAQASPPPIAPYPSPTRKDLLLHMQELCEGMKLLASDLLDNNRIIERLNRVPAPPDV
Summary of the method: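 Activity was measured as mobility-shift separation of phosphorylated from unphosphorylated substrate on a LabChip EZ Reader. Compound was titrated from 30 uM final in 10 points, 1:4 steps, with 1% DMSO, and enzyme plus substrate reacted 90 min at 25° C before stop buffer. Control wells held 10 uM staurosporine.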

[1] = tested on: phosphorylation of the IRF-3 protein in MDA-MB-468 cells; assay: pIRF3 immunocytochemistry cell based assay; settings: Homo sapiens; MDA-MB-468 cells, Poly(I:C) stimulation; read-out: pIRF3 IC50
Procedure: The purpose of the pIRF3 immunocytochemistry cell based assay was to identify small molecules which modulates TBK/IKKe kinase activity through on target substrate phosphorylation of the IRF-3 protein. On the first day of the experiment, MDA-MB-468 cells were plated in 384 well, black, clear-bottom, Poly D lysine coated plates at a density of 5000 cells/well in 45 ul of complete DMEM and allowed to adhere overnight. On the second day compounds were added to cells at a starting concentration of 10 uM with a serial dilution of 3-fold for a total of 10 points. The cells were incubated for 1 hr at 37° C. Cells were then stimulated with Poly(I:C) at a final concentration of 10 ug/ml, and were incubated for 2 hr at 37° C. Following the incubation, media was removed from the wells and the cells were fixed with 4% PFA for 15 min at RT. Cells were washed at least 3 times with PBS, and then permeabilized with ice-cold methanol for 10 min at RT. The washing step was repeated and the cells were then blocked using 10% goat serum/1% BSA, made up in PBS and allowed to incubate at RT for 1 hr. The cells were washed again and then treated with an anti-pIRF3 antibody at 4° C. overnight (1:250 dilution of Abcam ab76493 in PBS containing 1% BSA). On the third day the primary antibody was washed off and pIRF3 was detected by adding the secondary antibody conjugated to AlexaFluor488 (1:200 dilution of secondary antibody in PBS containing 1% BSA) for 1 hr at RT. Cells were washed and then counterstained with PI/RNase staining buffer for 15 min at RT and read on the Acumen Explorer laser scanning cytometer. The percentage of phosphorylation of the IRF-3 protein was calculated using the following algorithm, a modified version of the mean half width intensity (pIRF3 staining)/(PI staining or # of cells)×100%). IC50 curves were generated using the Genedata software.

Compound	pIC50 (TBK1)	pIC50 (IKKε)	pIC50 [1]
COc1cc(C(=O)N2CCC(CO)CC2)ccc1-c1cc2nccc(-c3ccc(OC4CCOCC4)c(C#N)c3)c2o1 [Compound 5, 5-{2-[4-(4-Hydroxymethyl-piperidine-1-carbonyl)-2-methoxy-phenyl]-furo[3,2-b]pyridin-7-yl}-2-(tetrahydro-pyran-4-yloxy)-benzonitrile]	> 7.00	> 7.00	> 7.00
COc1cc(C(=O)N(C)C)ccc1-c1cc2nccc(-c3ccc(NC4CCOC4)c(C#N)c3)c2o1 (stereo not drawn) [Compound 7]	> 7.00	> 7.00	6.00 to 7.00
COc1cc(C(=O)N2CC(N3CCOCC3)C2)ccc1-c1cc2nccc(-c3ccc(OC4CCOCC4)c(C#N)c3)c2o1 [Compound 8]	> 7.00	> 7.00	> 7.00
COc1cc(C(=O)N2CC3CN(C)CC3C2)ccc1-c1cc2nccc(-c3ccc(OC4CCOCC4)c(C#N)c3)c2o1 (stereo not drawn) [Compound 9, 5-{2-[2-Methoxy-4-(5-methyl-hexahydro-pyrrolo[3,4-c]pyrrole-2-carbonyl)-phenyl]-furo[3,2-b]pyridin-7-yl}-2-(tetrahydro-pyran-4-yloxy)-benzonitrile]	> 7.00	> 7.00	> 7.00
COc1cc(C(=O)N2CCCCC2CO)ccc1-c1cc2nccc(-c3ccc(OC4CCOCC4)c(C#N)c3)c2o1 (stereo not drawn) [Compound 10]	> 7.00	> 7.00	> 7.00
COc1cc(C(=O)NC2CCOCC2O)ccc1-c1cc2nccc(-c3ccc(OC4CCOCC4)c(C#N)c3)c2o1 (stereo not drawn) [Compound 11, 4-{7-[3-Cyano-4-(tetrahydro-pyran-4-yloxy)-phenyl]-furo[3,2-b]pyridin-2-yl}-N-(3-hydroxy-tetrahydro-pyran-4-yl)-3-methoxy-benzamide]	> 7.00	> 7.00	6.00 to 7.00
COc1cc(C(=O)N2CCN(CCO)CC2)ccc1-c1cc2nccc(-c3ccc(OC4CCOCC4)c(C#N)c3)c2o1 [Compound 13, 5-(2-{4-[4-(2-Hydroxy-ethyl)-piperazine-1-carbonyl]-2-methoxy-phenyl}-furo[3,2-b]pyridin-7-yl)-2-(tetrahydro-pyran-4-yloxy)-benzonitrile]	> 7.00	> 7.00	> 7.00
COc1cc(C(=O)N2CC[C@H](O)C2)ccc1-c1cc2nccc(-c3ccc(OC4CCOCC4)c(C#N)c3)c2o1 [Compound 14, 5-{2-[4-((S)-3-Hydroxy-pyrrolidine-1-carbonyl)-2-methoxy-phenyl]-furo[3,2-b]pyridin-7-yl}-2-(tetrahydro-pyran-4-yloxy)-benzonitrile]	> 7.00	> 7.00	> 7.00
COc1cc(C(=O)N2CCN(C)CC2)ccc1-c1cc2nccc(-c3ccc(OC4CCOCC4)c(C#N)c3)c2o1 [Compound 15, 5-{2-[2-Methoxy-4-(4-methyl-piperazine-1-carbonyl)-phenyl]-furo[3,2-b]pyridin-7-yl}-2-(tetrahydro-pyran-4-yloxy)-benzonitrile]	> 7.00	> 7.00	> 7.00
COc1cc(C(=O)N2CCN(C)CC2)ccc1-c1cc2nccc(-c3ccc(N4CC[C@H](F)C4)c(C#N)c3)c2o1 [Compound 16, 2-((S)-3-Fluoro-pyrrolidin-1-yl)-5-{2-[2-methoxy-4-(4-methyl-piperazine-1-carbonyl)-phenyl]-furo[3,2-b]pyridin-7-yl}-benzonitrile]	> 7.00	> 7.00	6.00 to 7.00
COc1cc(C(=O)N2CC[C@@H](F)C2)ccc1-c1cc2nccc(-c3ccc(OC4CCOCC4)c(C#N)c3)c2o1 [Compound 17, 5-{2-[4-((R)-3-Fluoro-pyrrolidine-1-carbonyl)-2-methoxy-phenyl]-furo[3,2-b]pyridin-7-yl}-2-(tetrahydro-pyran-4-yloxy)-benzonitrile]	> 7.00	> 7.00	6.00 to 7.00
